Test results reported in patent US20240360107A1, “AN EIF4A INHIBITOR WITH A NOVEL MECHANISM OF ACTION” (ARIZONA BOARD OF REGENTS ON BEHALF OF THE UNIVERSITY OF …, priority 2021, published 2024).
“Also recorded” adds a separate entry of the source.

Key:
Format in all cases: biochemical
[1] = tested on: cap-dependent translation of firefly luciferase; experiment: in vitro translation of bicistronic luciferase reporter in rabbit reticulocyte lysate, firefly luciferase; conditions: Cycloheximide 600 μM, Silvestrol 100 nM
Text: (§1) A bicistronic luciferase reporter ([…]) (FIG. 7B, top) was programmed into rabbit reticulocyte lysates, cellular extracts capable of performing both cap-dependent and Hepatitis C virus (HCV) internal ribosomal entry site (IRES)-mediated translation. eIF4A is the enzymatic driver of cap-dependent translation and is not involved in translation through HCV IRES. Compounds that inhibit eIF4A should inhibit cap-dependent translation of firefly (FF) luciferase while leaving IRES-mediated translation of Renilla (Ren) luciferase relatively unaffected. The inhibitory activities of cycloheximide, silvestrol, and 28 were assessed in this in vitro translation assay (FIG. 7B, bottom). […] The ability of compound 28 to preferentially target cap-dependent translation in a similar manner as silvestrol provides promising evidence that 28 inhibits eIF4A and not other proteins in the general translational machinery.
(§2) The dual-luciferase reporter plasmid pSP/(CAG)33/FF/HCV/Ren-pA51 was linearized with BamHI and subsequently in vitro transcribed using the Promega mMessage mMachine SP6 transcription kit, according to manufacturer's specifications. RNA was precipitated with LiCI and resuspended in H2O for use in in vitro translation experiments. Rabbit reticulocyte lysate (RRL) (nuclease-treated, Promega) was used to assess inhibitory effects of 28 on translation of the dual-reporter. Briefly, a reaction consisting of 50% RRL, 30 ng/μL reporter RNA, 10 μM Amino Acid Mixture Minus Methionine, 10 μM Amino Acid Mixture Minus Leucine, […], 1 U/μL RNAseOut (Thermo), and drug (final DMSO concentration 1%) were incubated at 30° C. for 90 minutes. The reaction was quenched with 50 μL 1× Passive Lysis Buffer (Promega), 10 μL of the mix was transferred to a 96-well white plate (Cellstar), and the Dual-Reporter Luciferase Assay System (Promega) was used to generate luminescence according to the manufacturer's instructions. Luminescence was detected using a plate reader (BioTek HT Synergy).

[2] = tested on: HCV IRES-dependent translation of Renilla luciferase; experiment: in vitro translation of bicistronic luciferase reporter in rabbit reticulocyte lysate, Renilla luciferase; conditions: Cycloheximide 600 μM, Silvestrol 100 nM
Text: as §1, §2

eIF4A = eIF4A (Homo sapiens, UniProt P60842); experiment: Helicase (duplex unwinding) assay; set-up: 6xHis with TEV protease site (N, cleaved yes); made in house; host or cells: E. coli BL21-CodonPlus; conditions: Cy3-RNA/DNA duplex, 2.5 μM eIF4A, 2 mM ATP
Description: A functional duplex unwinding assay with a duplex nucleic acid substrate was utilized to test if compound 1 and compound 28 could inhibit eIF4A helicase activity. This unwinding assay features a Cy3-labeled RNA strand annealed to a DNA strand with a long overhang that eIF4A can bind (FIG. 9, top right). When ATP is added to protein and substrate, eIF4A unwinds the duplex, leaving an unlabeled DNA strand and a Cy3-labeled single stranded RNA. When visualized on a native gel, the larger intact fluorescent duplex substrate will run higher on the gel than the smaller unwound single-stranded fluorescent RNA. The ratio of these two Cy3 signals can be used to determine the helicase activity of eIF4A in each condition.
Dose responses of compound 1 and compound 28 were conducted using this assay. […] The intensity of each band in each gel lane was quantified by densitometry to obtain IC50 values for compound 1 and compound 28 in this assay. […]
Helicase assay. […] All products were analyzed by electrophoresis on 20% native polyacrylamide (37.5:1 acrylamide:bisacrylamide) gels. Gels were run at 4° C. for 2 hours and Cy3 signal was detected on an Azure 600 Fluorescent Imaging System (Azure Biosystems) at 524 nm:572 nm (Ex:Em). Cy3 signal was quantified by gel band densitometry performed using ImageJ32 (NIH). IC50 values were calculated using GraphPad Prism v6.0.

Chain of eIF4A (P60842 whole entry): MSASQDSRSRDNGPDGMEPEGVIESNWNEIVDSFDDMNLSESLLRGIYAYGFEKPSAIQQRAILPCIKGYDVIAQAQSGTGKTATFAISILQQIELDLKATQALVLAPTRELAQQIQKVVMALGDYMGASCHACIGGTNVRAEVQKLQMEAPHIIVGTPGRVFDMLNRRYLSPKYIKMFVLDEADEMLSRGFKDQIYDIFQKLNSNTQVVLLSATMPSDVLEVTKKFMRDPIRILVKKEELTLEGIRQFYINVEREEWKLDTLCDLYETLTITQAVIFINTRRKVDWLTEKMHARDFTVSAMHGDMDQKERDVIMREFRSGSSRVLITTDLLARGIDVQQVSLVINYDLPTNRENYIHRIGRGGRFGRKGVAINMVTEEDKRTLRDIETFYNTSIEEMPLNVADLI

Row | SMILES | effect on cap-dependent translation (firefly luciferase) [1] | effect on HCV IRES-mediated translation (Renilla luciferase) [2] | inhibition of eIF4A duplex unwinding (eIF4A)
1 | CCCCc1ccc(-c2ccc(-c3cc(C(=O)O)c4cc([N+](=O)[O-])ccc4n3)o2)cc1 [Compound 28, 2-(5-(4-butylphenyl)furan-2-yl)-6-nitroquinoline-4-carboxylic acid] | inhibit cap-dependent translation of firefly luciferase; also recorded: inhibits cap-dependent translation | only show a modest effect on HCV IRES-dependent translation of Renilla luciferase | about four-fold more potent than compound 1; also recorded: inhibit eIF4A duplex unwinding
2 | CCCCc1ccc(-c2ccc(-c3cc(C(=O)O)c4cc(Br)ccc4n3)o2)cc1 [Compound 1, 6-bromo-2-(5-(4-butylphenyl)furan-2-yl)quinoline-4-carboxylic acid] | – | – | inhibit eIF4A duplex unwinding
